Test results: ChEMBL document CHEMBL3124915, “One-step semisynthesis of oleacein and the determination as a 5-lipoxygenase inhibitor” (J Nat Prod, 2014)

How the values were obtained:
[1] = molecular target: T1, Polyunsaturated fatty acid 5-lipoxygenase (Homo sapiens, UniProt P09917); test: Inhibition of human recombinant 5-lipoxygenase using arachidonic acid as substrate preincubated for 10 mins before substrate addition measured after 10 mins by HPLC analysis
T1 sequence (P09917 whole entry): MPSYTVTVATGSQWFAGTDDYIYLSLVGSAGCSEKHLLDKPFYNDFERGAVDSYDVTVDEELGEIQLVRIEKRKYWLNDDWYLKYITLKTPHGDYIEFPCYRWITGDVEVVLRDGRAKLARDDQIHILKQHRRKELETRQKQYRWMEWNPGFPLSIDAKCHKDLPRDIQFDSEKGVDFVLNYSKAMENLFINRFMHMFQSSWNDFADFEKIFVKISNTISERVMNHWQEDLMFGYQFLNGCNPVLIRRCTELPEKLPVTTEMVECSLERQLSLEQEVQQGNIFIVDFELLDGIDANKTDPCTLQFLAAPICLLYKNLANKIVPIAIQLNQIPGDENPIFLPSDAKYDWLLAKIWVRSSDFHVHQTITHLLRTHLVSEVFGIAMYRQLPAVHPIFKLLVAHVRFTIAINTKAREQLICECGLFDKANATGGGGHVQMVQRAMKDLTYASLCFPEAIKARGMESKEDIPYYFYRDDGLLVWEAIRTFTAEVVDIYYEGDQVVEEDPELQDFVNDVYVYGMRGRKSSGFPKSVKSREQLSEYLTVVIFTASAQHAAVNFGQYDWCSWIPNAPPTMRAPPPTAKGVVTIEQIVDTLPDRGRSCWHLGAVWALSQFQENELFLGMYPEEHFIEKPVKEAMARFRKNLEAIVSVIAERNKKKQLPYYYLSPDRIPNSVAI

[2] = molecular target: T2, Polyunsaturated fatty acid 5-lipoxygenase (Homo sapiens) (UniProt P09917); test: Inhibition of human recombinant 5-lipoxygenase expressed in Escherichia coli Bl21 (DE3) using arachidonic acid as substrate preincubated at 10 uM for 10 mins before substrate addition measured after 10 mins by HPLC analysis
T2 sequence (whole entry): T1 sequence (P09917 whole entry)

| SMILES | IC50 [1] [µM] | inhibition [2] [%] |
| --- | --- | --- |
| C/C=C(/C=O)[C@@H](CC=O)CC(=O)OCCc1ccc(O)c(O)c1 | 2 | 90 |
| C/C=C(/C=O)[C@@H](CC=O)CC(=O)OCCc1ccc(O)cc1 |  | 48 |
| C/C=C1/[C@H](O[C@@H]2O[C@H](CO)[C@@H](O)[C@H](O)[C@H]2O)OC=C(C(=O)OC)[C@H]1CC(=O)OCCc1ccc(O)c(O)c1 |  | 35 |
| OCCc1ccc(O)cc1 |  | 20 |
| OCCc1ccc(O)c(O)c1 [HYDROXYTYROSOL] | 13 | 48 |
